Laboratory results: patent publication US7094752B2 (Chiron Corporation, priority 1997, dated 2006)

Key:
[1] = tested on: GPI-uPAR dependent adhesion of 293 cells to vitronectin; assay: Adhesion of GPI-uPAR expressing 293 cells to vitronectin; type: cell-based
Text: In order to ascertain whether cytoskeletal connecting elements important to integrin-dependent adhesion were also involved in adhesion mediated by uPAR, embryonic kidney cells (293 cells) were engineered to coexpress uPAR along with a chimeric protein comprised of the β1 cytoplasmic tail fused with the transmembrane domain of […] (CD4). […] Co-expression of uPAR with β1 cytoplasmic domains completely abrogated uPAR-dependent vitronectin adhesion. Clones expressing full length or truncated β1 cytoplasmic tails prepared as in Lukashev et al, J. Biol. Chem. 26: 18311 (1994) were transfected with cDNA for GPI-uPAR and selected as in Wei et al, J. Biol. Chem. 169: 32380 (1994). Chimeric β1 expression was induced by cadmium for 6 hours prior to assaying adhesion to vitronectin at 37° C. Following induction of full length β1 chimerics, essentially no cells were adherent to vitronectin-coated surfaces whereas co-transfectants expressing the truncated β1 adhered avidly.
Cell adhesion assays were conducted to determin whether the observed uPAR/β1/caveolin complexes were functionally relevant.
To test this hypothesis further, a phage display peptide library was screened for uPAR-binding phages. A number of phage peptides were isolated as described in Goodson et al, Proc. Natl. Acad. Sci. U.S.A. 91: 7129 (1994). […]

[2] = target: T1, Mac-1 and uPAR (Homo sapiens, UniProt Q03405); assay: Mac-1/uPAR interaction in U937 cell line; type: cell-based; details: 100 μM
T1 construct: endogenous in cells; host or cells: U937 cell line
T1 sequence (Q03405 23-305 limits assumed): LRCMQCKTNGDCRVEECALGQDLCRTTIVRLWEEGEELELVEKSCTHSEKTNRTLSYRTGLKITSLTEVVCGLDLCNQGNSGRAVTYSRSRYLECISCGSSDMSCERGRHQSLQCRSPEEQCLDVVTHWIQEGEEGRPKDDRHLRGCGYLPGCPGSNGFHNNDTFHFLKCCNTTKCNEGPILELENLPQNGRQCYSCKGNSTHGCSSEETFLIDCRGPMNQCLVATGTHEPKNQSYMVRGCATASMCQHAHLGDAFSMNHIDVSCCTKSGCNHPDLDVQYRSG

[3] = target: T2, uPA1–48:uPAR complexes binding to vitronectin (Homo sapiens, UniProt Q03405); assay: Vitronectin binding assay (ELISA); details: 20 nM biotinylated suPAR, 20 nM uPA1–48
T2 construct: sUPAR, soluble truncated form of the urokinase receptor; made in house; host or cells: suPAR: baculovirus-infected Sf9 cells; uPA1-48: recombinant yeast; vitronectin: purified from human plasma
T2 sequence (Q03405 23-305 limits assumed, one chain of several): as the sequence (Q03405 23-305 limits assumed) above
Description: Vitronectin was purified from human plasma by the method of Yatohgo et al, Cello Struct.and Funct. 13: 281–292 (1988). Purified vitronectin was diluted to 20 μg/ml in PBS containing 1 mM CaCl2 and 0.5 mM MgCl2, dispensed at 50 μl/well into Immulon II wells (Dynatech, Chantilly, Va.), incubated overnight at 4° C. and washed with PBS/BSA. Biotinylated sUPAR was diluted to 20 nM in PBS/BSA, incubated with or without test ligand for 30 minutes at room temperature (22° C.), dispensed at 100 μl/well and incubated for 90 minutes. Wells were then washed and horseradish peroxidase (HRP)-conjugated streptavidin was added at 0.4 μg/ml in PBS/2% BSA for 1 hour followed by washing and addition of 100 μl/well TMB substrate. The color development was stopped with 100 μl of 0.8N H2SO4 and the absorbance at 450 nm measured in a 96 well plate reader (Dynatech, Chantilly, Va.). Antagonistic effects of test ligands were measured as described above except the ligands were incubated with 20 nM biotinylated suPAR in the presence of 20 nM uPA1–48.
In order to analyze the effects of the various peptide ligands on the uPAR:vitronectin interaction, we developed an in vitro ELISA based assay for this interaction, in which biotinylated suPAR and uPA1–48 bind to immobilized, urea purified vitronectin, and the bound sUPAR is detected with HRP conjugated streptavidin. Under the conditions of the assay binding of biotinylated uPAR to vitronectin is strictly dependent on uPA1–48, as shown in FIG. 1.

[4] = target: T3, sUPAR domain 2–3 (D23) (Homo sapiens, UniProt Q03405); assay: Bacteriophage binding to sUPAR domain 2/3; details: phage-displayed peptide
T3 construct: domains 2 and 3 (amino acids 93–313); made in house; host or cells: baculovirus infected Sf9 insect cells
T3 sequence (Q03405 115-335): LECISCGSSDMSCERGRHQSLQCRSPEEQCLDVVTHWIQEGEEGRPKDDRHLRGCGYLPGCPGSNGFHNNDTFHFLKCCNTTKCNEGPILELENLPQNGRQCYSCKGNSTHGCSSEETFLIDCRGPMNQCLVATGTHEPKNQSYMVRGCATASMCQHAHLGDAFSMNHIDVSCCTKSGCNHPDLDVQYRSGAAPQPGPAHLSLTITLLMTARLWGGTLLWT
Description: FIG. 5. Bacteriophage binding to sUPAR domain 2/3. Phage were added to wells containing sUPAR domain 2/3 immobilized by its epitope tag via protein G and monoclonal antibody to the epitope tag. Wells containing protein G and antibody but no domain 2/3 were included to determine nonspecific phage binding. Urea-eluted phage and the input stocks were titered by plaque formation assay. Results were single point determinations calculated as a percent of the input titer and were repeated in three separate experiments.
It was also shown by the inventors that bacteriophage bound to sUPAR domain 2–3fragment. Protein G, 100μl, 1 mg/ml in 50 mM Na2CO3, pH9.6, was added to MaxiSorp wells, incubated overnight at 4° C. and then washed with PBS/BSA. Fifty μl of monoclonal antibody to the epitope tag EYMPME (SEQ ID NO: 18) was added at 1 mg/ml in PBS/BSA and incubated for 2 hours at room temperature. The wells were washed, recombinant sUPAR domain 2–3 (1.7 μM in PBS/BSA) was added and incubated for 1.5 hours at room temperature. The wells were washed prior to the addition of bacteriophage (approximately 10^8 pfu), and then treated as described in the previous section for binding to suPAR.

[5] = target: T4, suPAR (Homo sapiens, UniProt Q03405); assay: SuPAR:1-anilino-8-napthalenesulfonate (ANS) fluorescence; type: binding; details: 2 μM sUPAR, 10 μM ANS, 0 to 20 μM competitor
T4 construct: sUPAR, soluble truncated form of the urokinase receptor; made in house; host or cells: baculovirus-infected Sf9 insect cells
T4 sequence (Q03405 23-305 limits assumed): as the sequence (Q03405 23-305 limits assumed) above
Description: Determination of the effect of various peptide ligands on sUPAR/ANS fluorescence was performed following a procedure similar to that of Ploug et al, Biochem. 33: 8991–8997 (1994). Fluorescence emission spectra of sUPAR/ANS solutions with or without competitors were obtained using an Hitachi F-4500 fluorescence spectrophotometer with an excitation wavelength of 386 nm, 5-nm band-pass excitation and emission slits, and a 10 mm path length quartz cuvette. The emission spectra from 400 to 600 nm were recorded. For competition measurements, dilutions of a stock sUPAR/ANS solution were made to give individual 0.5 ml aliquots with a final concentration of 2 μM sUPAR, 10 μM ANS, and 0 to 20 μM competitor in PBS containing 10% DMSO. Fluorescence measurements were made after a one hour incubation at 25° C.

H-AESTYHHLSLGYMYTLN-NH2 [peptide 25]
IC50 [1]: ~60 µM
interaction between Mac-1 and uPAR [2]: abrogated the interaction
effect on binding of uPA1–48:uPAR complexes to vitronectin [3]: little or no effect
bacteriophage binding to immobilized D23 versus sUPAR ([4]; listed as bacteriophage 25): equivalent binding to D23 and suPAR
bacteriophage binding to immobilized D23 versus sUPAR ([4]; listed as clone 25): bind equivalently to the D23 fragment and full-length receptor
effect on ANS fluorescence enhancement in the presence of uPAR [5]: no effect
